Test results taken from PMC9861386, “N-Heterocyclic Carbene-Iridium Complexes as Photosensitizers for In Vitro Photodynamic Therapy to Trigger Non-Apoptotic Cell Death in Cancer Cells” (Molecules, 2023).

Tested on: PARP, caspase-7 and caspase-8 processing
Experiment: Western blot of apoptotic biomarkers
Assay type: cell-based, human
Conditions: 458 nm irradiation, 72 h
Text: Its effects on apoptotic biochemical markers by Western blotting analysis in MCF7/FasR cells and its Bcl-xL-overexpressed counterpart in comparison with the apoptotic inducer TNFα were examined (Figure 13). Cleavage-mediated inactivation of DNA repair enzyme poly(ADP-ribose) polymerase (PARP) by executioner caspases (e.g., caspase-3, caspase-7) has been considered as a marker of apoptotic cell death. The treatment with TNFα was associated with the proteolytic cleavage of PARP (decreased in 113 kDa full-length, increased in apoptotic 89 kDa fragment) in MCF7/FasR cells (Figure 13A). Since the MCF7 cell line lacks caspase-3 due to the functional deletion of the CASP-3 gene, caspase-7 is the only executioner caspase in these cells, as evidenced by the decreased content in the 35 kDa full-length pro-caspase-7 observed upon TNFα treatment (Figure 13A). The upstream caspase-8 that can directly process caspase-7 (extrinsic pathway) was also activated (loss of 55 kDa full-length pro-caspase-8). […] Importantly, the overexpression of Bcl-xL had no effect on apoptotic markers, regardless of the concentration of complex 4a used, implying that a MOMP-dependent mechanism is unlikely to be involved. In parallel experiments, cell viability and quantification of ATP and GSH levels were assessed. […] The early transient elevation of cytosolic ATP level is a necessary condition for the apoptotic cell death process, followed by a drop that correlates with the time course of cell death. […]
We next evaluated the effect of the pan-caspase inhibitor z-VAD-fmk on caspase signaling. […]
Cell lysate preparation and Western blotting were carried out as previously described. […] Proteins were visualized by ECL (Clarity Western ECL Substrate, Bio-Rad, Marnes-la-Coquette, France) using anti-rabbit or anti-mouse HRP-conjugated IgG (Bio-Rad); analysis of Western blots was assessed with a ChemiDoc imaging system (Bio-Rad).
Figure 13 Evaluation of apoptotic biomarkers. […] (B) MTT, ATP and GSH assays were evaluated in duplicate samples. […]

CC(C)[n+]1ccn2[c]1[Ir-3]13([c]4ccccc4-c4cccc[n+]41)([c]1ccccc1-c1cccc[n+]13)[c]1n(cc[n+]1C(C)C)C2.F[P-](F)(F)(F)(F)F [Complex 4a]
processing of PARP, caspase-7 and caspase-8 at GI50 concentration (50 nM, MCF7/FasR and MCF7/FasR/Bcl-xL): no processing of PARP, caspase-7 and caspase-8 were observed | processing of PARP, caspase-7 and caspase-8 at high concentration (250 nM and 1 µM, MCF7/FasR): cleavage of PARP and processing of caspase-7 and caspase-8 | procaspase-7 expression and PARP activation (500 nM, MCF7/FasR): significant loss of procaspase-7 expression
